Source: patent US20060014790A1, “Methods of treatment of amyloidosis using spirocyclohexane aspartyl-protease inhibitors” (priority 2004, published 2006)

Tested on: not listed separately
Assay: Brain uptake (brain penetration after IV administration)
Settings: CF-1, mouse, in vivo, 10 μmol/kg
Description: The following assay was employed to determine the brain penetration of compounds encompassed by the present invention.
In-life phase: Test compounds were administered to CF-1 (20-30 g) mice at 10 μmol/kg (4 to 7 mg/kg) following IV administration in the tail vein. Two time-points, 5 and 60 min, were collected post dose. Four mice were harvested for heparinized plasma and non-perfused brains at each time-point for a total of 8 mice per compound.
Analytical phase: Samples were extracted and evaporated to dryness, then reconstituted and injected onto a reverse phase chromatographic column while monitoring the effluent with a triple quadrupole mass spectrometer. Quantitation was then performed with a 1/x^2 weighted fit of the least-squares regression from calibration standards prepared in parallel with the in vivo samples. The lower limit of quantitation (LOQ) is generally 1 ng/mL and 0.5 ng/g for the plasma and brain respectively. Data was reported in micromolar (μM) units. Brain levels were corrected for plasma volumes (16 μL/g).

With `CC(=O)NC(Cc1cc(F)cc(F)c1)C(O)CNC1(c2cccc(C(C)(C)C)c2)CCCCC1` (stereo not shown) [Example 198-1, N-[3-[1-(3-tert-Butyl-phenyl)-cyclohexylamino]-1-(3,5-difluoro-benzyl)-2-hydroxy-propyl]-acetamide] as the compound, how does the Kp at 5 min read?
The Kp at 5 min was 1.7.

What about the Kp at 10 min of the same compound?
The Kp at 10 min was 3.

Which Kp at 5 min does the source give for `CC(=O)NC(Cc1cc(F)cc(F)c1)C(O)CNC1(c2cccc(C(C)C)c2)CCC(=O)CC1` (stereo not shown) [Example 198-3, N-{1-(3,5-Difluoro-benzyl)-2-hydroxy-3-[1-(3-isopropyl-phenyl)-4-oxo-cyclohexylamino]-propyl}-acetamide] here?
The Kp at 5 min was 0.5.

And the Kp at 10 min?
The Kp at 10 min was 8.4.

With `CC(=O)NC(Cc1cc(F)cc(F)c1)C(O)CNC1(c2cccc(-c3ccsc3)c2)CCCCC1` (stereo not shown) [Example 198-4, N-{1-(3,5-Difluoro-benzyl)-2-hydroxy-3-[1-(3-thiophen-3-yl-phenyl)-cyclohexylamino]-propyl}acetamide] as the compound, how does the Kp at 5 min read?
Its Kp at 5 min is 0.7.

And the Kp at 10 min?
The Kp at 10 min was 3.7.

Tested on: not listed separately
Assay: Oral bioavailability after IV and PO administration
Assay type: in vivo
Settings: male, Sprague-Dawley, rat, plasma, read-out: Rat % F
Description: The invention encompasses compounds of formula (I) that are orally bioavailable. Oral bioavailability can be determined following both an intravenous (IV) and oral (PO) administration of a test compound.
Oral Bioavailability was determined in the male Sprague-Dawley rat following both IV and PO administration of test compound. Two month-old male rats (250-300 g) were surgically implanted with polyethylene (PE-50) cannula in the jugular vein while under isoflurane anesthesia the day before the in-life phase. Animals were fasted overnight with water ad libitum, then dosed the next day. The dosing regime consisted of either a 5 mg/kg (2.5 mL/kg) IV dose (N=3) administered to the jugular vein cannula, then flushed with saline, or a 10 mg/kg (5 mL/kg) PO dose (N=3) by esophageal gavage. Compounds were formulated with 10% Solutol in 5% dextrose at 2 mg/mL. […]
Compounds were extracted from samples following precipitation of the plasma proteins by methanol. […] Experimental samples were compared to calibration curves prepared in parallel with aged match rat plasma and quantitated with a weighted 1/x linear regression. […]
AUC is calculated from the linear trapezoidal rule by AUC=((C2+C1)/2)×(T2−T1) where C is concentration and T is time.
Pharmacokinetic parameters were calculated by a non-compartmental approach. […]

For `CC(=O)NC(Cc1cc(F)cc(F)c1)C(O)CNC1(c2cccc(C(C)(C)C)c2)CCCCC1` (stereo not shown) [Example 197-1, N-[3-[1-(3-tert-Butyl-phenyl)-cyclohexylamino]-1-(3,5-difluoro-benzyl)-2-hydroxy-propyl]-acetamide], which bioavailability is on record?
Its bioavailability is 20.2%.

Tested on: A-beta
Assay: Efficacy of compounds to inhibit A-beta concentration (% inhibition vs vehicle control)
Assay type: in vivo, rat
Settings: cortex
Description: Efficacious compounds of the present invention are those able to decrease the amount of A-beta produced compared to a control, where beta-secretase mediated cleavage is observed and measured in the absence of the compounds. Detection of efficacy can be by analysis of A-beta levels, for example, by immunoassay, fluorometric or chromogenic assay, HPLC, or other means of detection. The efficacy of the compounds of formula (I) was determined as a percentage inhibition corresponding to A-beta concentrations for tissue treated and untreated with compound.
The invention encompasses compounds of formula (I) that are efficacious.

With `CC(=O)NC(Cc1cc(F)cc(F)c1)C(O)CNC1(c2cccc(C(C)(C)C)c2)CCC(NO)CC1` (single isomer, unassigned) [195-8 Diastereomer A, N-(4-(1-(3-tert-butylphenyl)-4-(hydroxyamino)cyclohexylamino)-1-(3,5-difluorophenyl)-3-hydroxybutan-2-yl)acetamide] as the compound, how does the “Efficacy (% Inhibition, 100 mg/kg) cortex” value read?
The value was 7%.

Which “Efficacy (% Inhibition, 100 mg/kg) cortex” value does the source give for `CC(=O)NC(Cc1cc(F)cc(F)c1)C(O)CNC1(c2cccc(C(C)(C)C)c2)CCCCC1` (stereo not shown) [Example 195-1, N-[3-[1-(3-tert-Butyl-phenyl)-cyclohexylamino]-1-(3,5-difluoro-benzyl)-2-hydroxy-propyl]-acetamide] here?
Its value is 62%.

For `CC(=O)NC(Cc1cc(F)cc(F)c1)C(O)CNC1(c2cccc(C(C)C)c2)CCC(=O)CC1` (stereo not shown) [Example 195-2, N-{1-(3,5-Difluoro-benzyl)-2-hydroxy-3-[1-(3-isopropyl-phenyl)-4-oxo-cyclohexylamino]-propyl}acetamide], which “Efficacy (% Inhibition, 100 mg/kg) cortex” value is on record?
Its value is 47%.

Same assay, conditions: plasma

Which “Efficacy (% Inhibition, 100 mg/kg) plasma” value does the source give for `CC(=O)NC(Cc1cc(F)cc(F)c1)C(O)CNC1(c2cccc(C(C)(C)C)c2)CCC(O)CC1` (single isomer, unassigned) [195-5 Diastereomer A, N-[3-[1-(3-tert-Butyl-phenyl)-4-hydroxy-cyclohexylamino]-1-(3,5-difluoro-benzyl)-2-hydroxy-propyl]-acetamide] here?
The value was 55%.

With `CONC1CCC(NCC(O)C(Cc2cc(F)cc(F)c2)NC(C)=O)(c2cccc(C(C)(C)C)c2)CC1` (single isomer, unassigned) [195-7 Diastereomer A, N-(4-(1-(3-tert-butylphenyl)-4-(methoxyamino)cyclohexylamino)-1-(3,5-difluorophenyl)-3-hydroxybutan-2-yl)acetamide] as the compound, how does the “Efficacy (% Inhibition, 100 mg/kg) plasma” value read?
Its value is 50%.

With `CC(=O)NC(Cc1cc(F)cc(F)c1)C(O)CNC1(c2cccc(C(C)(C)C)c2)CCCCC1` (stereo not shown) [Example 195-1, N-[3-[1-(3-tert-Butyl-phenyl)-cyclohexylamino]-1-(3,5-difluoro-benzyl)-2-hydroxy-propyl]-acetamide] as the compound, how does the “Efficacy (% Inhibition, 100 mg/kg) plasma” value read?
The value was 50%.

For `CC(=O)NC(Cc1cc(F)cc(F)c1)C(O)CNC1(c2cccc(C(C)C)c2)CCC(=O)CC1` (stereo not shown) [Example 195-2, N-{1-(3,5-Difluoro-benzyl)-2-hydroxy-3-[1-(3-isopropyl-phenyl)-4-oxo-cyclohexylamino]-propyl}acetamide], which “Efficacy (% Inhibition, 100 mg/kg) plasma” value is on record?
The value was 59%.

Which “Efficacy (% Inhibition, 100 mg/kg) plasma” value does the source give for `CC(=O)NC(Cc1cc(F)cc(F)c1)C(O)CNC1(c2cccc(C(C)(C)C)c2)CCC(=O)CC1` (stereo not shown) [Example 195-3, N-[3-[1-(3-tert-Butyl-phenyl)-4-oxo-cyclohexylamino]-1-(3,5-difluoro-benzyl)-2-hydroxy-propyl]-acetamide] here?
The value was 58%.

With `CC(=O)NC(Cc1cc(F)cc(F)c1)C(O)CNC1(c2cccc(-n3cccn3)c2)CCCCC1` (stereo not shown) [Example 195-4, N-{1-(3,5-Difluoro-benzyl)-2-hydroxy-3-[1-(3-pyrazol-1-yl-phenyl)-cyclohexylamino]-propyl}-acetamide] as the compound, how does the “Efficacy (% Inhibition, 100 mg/kg) plasma” value read?
The value was 67%.

With `COC1CCC(NCC(O)C(Cc2cc(F)cc(F)c2)NC(C)=O)(c2cccc(C(C)(C)C)c2)CC1` (stereo not shown) [Example 195-6, N-[3-[1-(3-tert-Butyl-phenyl)-4-methoxy-cyclohexylamino]-1-(3,5-difluoro-benzyl)-2-hydroxy-propyl]-acetamide] as the compound, how does the “Efficacy (% Inhibition, 100 mg/kg) plasma” value read?
The value was 49%.

With `CSC1CCC(NCC(O)C(Cc2cc(F)cc(F)c2)NC(C)=O)(c2cccc(C(C)(C)C)c2)CC1` (stereo not shown) [Example 195-9, N-[3-[1-(3-tert-Butyl-phenyl)-4-methylsulfanyl-cyclohexylamino]-1-(3,5-difluoro-benzyl)-2-hydroxy-propyl]-acetamide] as the compound, how does the “Efficacy (% Inhibition, 100 mg/kg) plasma” value read?
Its value is 38%.

Which “Efficacy (% Inhibition, 100 mg/kg) plasma” value does the source give for `CC(=O)NC(Cc1cc(F)cc(F)c1)C(O)CNC1(c2cc(F)cc(C(C)(C)C)c2)CCCCC1` (stereo not shown) [Example 195-10, N-(4-(1-(3-tert-butyl-5-fluorophenyl)cyclohexylamino)-1-(3,5-difluorophenyl)-3-hydroxybutan-2-yl)acetamide] here?
Its value is 30%.
